Results on 14 compounds are retold here after patent US20220194938A1, “NOVEL COMPOUNDS AND PHARMACEUTICAL COMPOSITIONS THEREOF FOR THE TREATMENT OF INFLAMMATORY DISORDERS” (GALAPAGOS NV, priority 2019, published 2022).

In brackets after ≈: the same amount, converted by molar mass. Several values for one entry are separate records, joined by “and”; a condition that tells them apart may be missing. Equal entries are not always repeated. Where two headings read alike, the source gives them in different places. A value given as a limit tells only on which side of the number the result lay.

Data set [1] has as its system pooled cryopreserved hepatocytes. The data set is described as follows: Metabolic stability in hepatocytes (human). The note with it: 1 μM test compound. The data set is classed as in vitro ADME. As to the method: 4.6. Metabolic Stability in Hepatocytes
The aim of this assay is to determine the metabolic stability of the compound in hepatocytes (cryopreserved) of different species. Low hepatocyte stability may result in the formation of unwanted metabolites, high clearance, and therefore is not desirable.
The decrease in parent was assessed by measuring the percentage remaining by LC-MS/MS analysis.
A 10 mM stock solution of test compound in DMSO was first diluted in DMSO to 3 mM, and then in modified Krebs-Henseleit buffer (Sigma, K3753) to 5 μM. This compound dilution was added to a suspension of pooled cryopreserved hepatocytes (BioreclamationIVT) at 37° C. under gentle shaking.
Final reaction conditions were: 1 μM of test compound, 0.03% DMSO, 0.5 million viable hepatocytes/mL, and 75 μL incubation volume.
Testosterone (1 μM) and 7-hydroxycoumarin (1 μM) were used, respectively as phase I and phase II metabolic reaction controls.
After 0, 10, 20, 45, 90, 120 and 180 min of incubation, the reaction was terminated with 225 μL of MeCN:MeOH (2:1) containing 100 ng/mL of diclofenac as analytical internal standard. Samples were mixed, centrifuged and the supernatant analyzed by LC-MS/MS.
The instrument responses (ratios of test compound and internal standard peak areas) were referenced to the zero time point samples (considered as 100%) in order to determine the percentage of compound remaining.
Plots of percentage compound remaining are used to determine the intrinsic clearance in the hepatocyte incubations using the following equations:
Scaled Clint[L/h/kg]=Clint[μL/min/10^6 cells]*#(10^6) cells/g liver*60*(1/10^6) Scaled Clint unbound [L/h/kg]=Clint [L/h/kg]/Fu,inc where: fu,inc equals hepatocyte binding, derived from microsomal binding (fu,mic) by following equation: […]

The nature of a further data set: Thermodynamic solubility. The data set is classed as physicochemical. To be noted: 37° C.; for solubility thermodynamic at 24 h: thermodynamic from solid. An excerpt:
4.2. Thermodynamic Solubility
Poor solubility, in particular poor thermodynamic solubility can limit the absorption of compounds from the gastrointestinal tract which in turn may reduce oral bioavailability.
Thermodynamic solubility investigates the solubility of a compound as a saturated solution in equilibrium, by opposition to kinetic solubility, which measures the solubility of a metastable solution where supersaturation may occur and provide over estimation of the actual solubility of the compound. (Klein 2010)
4.2.1. Thermodynamic Solubility—Protocol 1
In a 8 mL glass vial, 1-2 mg of dry matter of compound are added and stirred with the suitable buffers (Fed State Simulated Intestine Fluid, FeSSIF, or Fasted State Simulated Intestine Fluid, FaSSIF, or Fasted State Simulated Gastric Fluid, FaSSGF, or phosphate buffer pH 7.4) for 24 h at r.t. (for the buffer pH 7.4) or 37° C. (for the GI fluids). The concentration of the mixture is 1 mg/mL.
A volume of 500 μL are sampled, centrifuged for 10 min at 10 000 rpm and filtered. The samples are diluted in duplicates in DMSO (F100 and F10). Then, a final dilution (F100) in 80/20 H2O/MeCN containing the internal standard (warfarin) is used for LCMS-MS analysis.
A standard curve is made starting from a 200,000 ng/mL stock in DMSO, freshly prepared from dry matter. Then, successive concentrations at […], 1,000, 200 and 75 ng/mL in DMSO are prepared by using the Tecan robot.
Two quality control samples are made: one of 10,000 ng/mL and one of 500 ng/mL in DMSO, also starting from the DMSO working stock solution at 200,000 ng/mL.
The standard curve and quality controls are diluted a F100 in 80/20 H2O/MeCN (with internal standard) and analyzed on LC/MS-MS (API4000 or API5500).
The samples are analyzed on LC-MS with a flow rate of 0.6 mL/min. The mobile phase A is 0.1% formic acid in water and the mobile phase B is 0.1% formic acid in MeCN. The sample is run under positive or negative ion spray on Pursuit C18-5 μm (2.0×20 mm) column, from Agilent.
The peak areas of the standard curve are plotted in a graph and a linear or polynomial of the second order equation is used to calculate the unknown concentrations of the test compound.
4.2.2. Thermodynamic Solubility—Protocol 2
In an 8 mL glass vial, 1-2 mg of dry matter of compound were added and stirred with the suitable buffers (Fed State Simulated Intestine Fluid, FeSSIF, or Fasted State Simulated Intestine Fluid, FaSSIF, or Fasted State Simulated Gastric Fluid, FaSSGF, or phosphate buffer pH 7.4) for 24 h at r.t. (for the buffer pH 7.4) or 37° C. (for the GI fluids). The concentration of the mixture was 1 mg/mL.
A volume of 1000 μL were sampled, centrifuged for 10 min at 10 000 rpm and 500 μL of the supernatant were filtered on captiva plate. The samples were diluted in duplicates in DMSO (F100 and F10). Then, a final dilution (F100) in 80/20 H2O/MeCN containing the internal standard (warfarin) was used for LCMS-MS analysis.
A standard curve was made starting from a 40,000 ng/mL stock in DMSO, freshly prepared from dry matter. Then, successive concentrations at 15,000, 11,000, 6,000, 2,500, 1,000, 375, 150 and 75 ng/mL in DMSO were prepared.
Three quality control samples were made: one of 10,000, 1,500 and 200 ng/mL in DMSO, also starting from the DMSO working stock solution at 40,000 ng/mL.
The standard curve and quality controls were diluted a F100 in 80/20 H2O/MeCN (with internal standard) and analyzed on LC/MS-MS (API4000 or API5500).
The samples were analyzed on LC-MS with a flow rate of 0.6 mL/min. The mobile phase A was 0.1% formic acid in water and the mobile phase B was 0.1% formic acid in 90% acetonitrile and 10% of water. The sample was run under positive or negative ion spray on Pursuit C18-5 μm (2.0×20 mm) column, from Agilent. […]

Setting [2] is: Fasted State Simulated Gastric Fluid, 24 h.
Setting [3] is: Fasted State Simulated Intestine Fluid, 24 h.
The mark [4] stands for this setting: Fasted State Simulated Gastric Fluid (FaSSGF), fassgf or other biorelevant, Fasted State Simulated Gastric Fluid, read-out: Tsol FaSSGF.
The mark [5] stands for this setting: Fasted State Simulated Intestine Fluid (FaSSIF), fassif, Fasted State Simulated Intestine Fluid, read-out: Tsol FaSSIF.
The mark [6] stands for this setting: Fed State Simulated Intestine Fluid (FeSSIF), fessif, Fed State Simulated Intestine Fluid, read-out: Tsol FeSSIF.

Regarding `[2H]C([2H])([2H])NC(=O)c1cc2nc(CCC(C)(C)O)cn2cc1NC(=O)c1cccc(C(F)(F)F)n1` [Compound 1, 2-(3-hydroxy-3-methyl-butyl)-N-(trideuteriomethyl)-6-[[6-(trifluoromethyl)pyridine-2-carbonyl]amino]imidazo[1,2-a]pyridine-7-carboxamide], the “Human (Perc. remaining at 90 min)” value in data set [1] was found to be 96.4%.

In the case of `CNC(=O)c1cc2nc(CCC(C)(C)O)cn2cc1NC(=O)c1cccc(C(F)(F)F)n1` [Compound 2, 2-(3-hydroxy-3-methyl-butyl)-N-methyl-6-[[6-(trifluoromethyl)pyridine-2-carbonyl]amino]imidazo[1,2-a]pyridine-7-carboxamide], in the data set “Thermodynamic solubility” (setting [2]), the “Tsol FaSSGF” value is 673 µg/mL and 969 µg/mL. For the same compound, the “Tsol FaSSIF” value in “Thermodynamic solubility” (setting [3]) was 9.08 µg/mL and 9.24 µg/mL. The “Tsol FeSSIF” value in the data set “Thermodynamic solubility” (Fed State Simulated Intestine Fluid, 24 h) was 35.4 µg/mL and 25.8 µg/mL. In addition, the “Human (Perc. remaining at 90 min)” value in data set [1] is 99.9%.

Consider `COc1cc2nc(CCC(C)(C)O)cn2cc1NC(=O)c1cccc(C(F)(F)F)n1` [Compound 3, N-[2-(3-hydroxy-3-methyl-butyl)-7-methoxy-imidazo[1,2-a]pyridin-6-yl]-6-(trifluoromethyl)pyridine-2-carboxamide], for which the solubility thermodynamic at 24 h is 880 µg/mL (≈ 2080 µM) in the data set “Thermodynamic solubility” (setting [4]), 31.4 µg/mL (≈ 74.3 µM) in “Thermodynamic solubility” (setting [5]) and 360 µg/mL (≈ 852 µM) in the data set “Thermodynamic solubility” (setting [6]). In addition, the “Human (Perc. remaining at 90 min)” value in data set [1] is listed as 94.55%.

Consider `COc1cc2nc(CCC(C)(C)O)cn2cc1NC(=O)c1cccn(C)c1=O` [Compound 4, N-[2-(3-hydroxy-3-methyl-butyl)-7-methoxy-imidazo[1,2-a]pyridin-6-yl]-1-methyl-2-oxo-pyridine-3-carboxamide], for which the solubility thermodynamic at 24 h in the data set “Thermodynamic solubility” (setting [4]) was 116 µg/mL (≈ 302 µM); in “Thermodynamic solubility” (setting [5]), 125 µg/mL (≈ 325 µM). For the same compound, the “Human (Perc. remaining at 90 min)” value in data set [1] is 99.7%.

For the compound `COc1cc2nc(CCC(C)(C)O)cn2cc1NC(=O)c1cccn(C2CC2)c1=O` [Compound 5, 1-cyclopropyl-N-[2-(3-hydroxy-3-methyl-butyl)-7-methoxy-imidazo[1,2-a]pyridin-6-yl]-2-oxo-pyridine-3-carboxamide], the solubility thermodynamic at 24 h in “Thermodynamic solubility” (setting [4]) is greater than 1000 µg/mL; in “Thermodynamic solubility” (setting [5]), 798 µg/mL (≈ 1940 µM); in “Thermodynamic solubility” (setting [6]), greater than 1000 µg/mL. Also, the “Human (Perc. remaining at 90 min)” value in data set [1] is given as 95.6%.

For `COc1cc2nc(CCC(C)(C)O)cn2cc1NC(=O)c1cccc(C)n1` [Compound 6, N-[2-(3-hydroxy-3-methyl-butyl)-7-methoxy-imidazo[1,2-a]pyridin-6-yl]-6-methyl-pyridine-2-carboxamide], the solubility thermodynamic at 24 h in “Thermodynamic solubility” (setting [5]) is 692 µg/mL (≈ 1880 µM). Moreover, the “Human (Perc. remaining at 90 min)” value in data set [1] is listed as 30.3%.

Consider `COc1cc2nc(CCC(C)(C)O)cn2cc1NC(=O)c1cccc(C(F)F)n1` [Compound 7, 6-(difluoromethyl)-N-[2-(3-hydroxy-3-methyl-butyl)-7-methoxy-imidazo[1,2-a]pyridin-6-yl]pyridine-2-carboxamide], for which, in the data set “Thermodynamic solubility” (setting [5]), the solubility thermodynamic at 24 h is 15.2 µg/mL (≈ 37.6 µM). In data set [1], the “Human (Perc. remaining at 90 min)” value is 78.4%.

Regarding `COc1cccc(C(=O)Nc2cn3cc(CCC(C)(C)O)nc3cc2OC)n1` [Compound 8, N-[2-(3-hydroxy-3-methyl-butyl)-7-methoxy-imidazo[1,2-a]pyridin-6-yl]-6-methoxy-pyridine-2-carboxamide], in the data set “Thermodynamic solubility” (setting [5]), the solubility thermodynamic at 24 h is 8.56 µg/mL (≈ 22.3 µM). For the same compound, the “Human (Perc. remaining at 90 min)” value in data set [1] came out at 78.4%.

As to `COc1cc2nc(CCC(C)(C)O)cn2cc1NC(=O)c1cccn(C(F)F)c1=O` [Compound 12, 1-(difluoromethyl)-N-[2-(3-hydroxy-3-methyl-butyl)-7-methoxy-imidazo[1,2-a]pyridin-6-yl]-2-oxo-pyridine-3-carboxamide], the solubility thermodynamic at 24 h in “Thermodynamic solubility” (setting [4]) is greater than 1000 µg/mL; in “Thermodynamic solubility” (setting [5]) it was 188 µg/mL (≈ 447 µM). Besides, the “Human (Perc. remaining at 90 min)” value in data set [1] is given as 100.7%.

In the case of `COc1cc2nc(CCC(C)(C)O)cn2cc1NC(=O)c1cccn(CC(F)(F)F)c1=O` [Compound 13, N-[2-(3-hydroxy-3-methyl-butyl)-7-methoxy-imidazo[1,2-a]pyridin-6-yl]-2-oxo-1-(2,2,2-trifluoroethyl)pyridine-3-carboxamide], the solubility thermodynamic at 24 h in the data set “Thermodynamic solubility” (setting [5]) is 600 µg/mL (≈ 1330 µM). The “Human (Perc. remaining at 90 min)” value in data set [1] stood at 105.95%.

`CCOc1c(NC(=O)c2cccn(C)c2=O)cn2cc(CCC(C)(C)O)nc2c1F` [Compound 38, N-[7-ethoxy-8-fluoro-2-(3-hydroxy-3-methyl-butyl)imidazo[1,2-a]pyridin-6-yl]-1-methyl-2-oxo-pyridine-3-carboxamide]: the results for the solubility thermodynamic at 24 h in “Thermodynamic solubility” (setting [4]) and in “Thermodynamic solubility” (setting [5]) were greater than 1000 µg/mL and 96.8 µg/mL (≈ 232 µM), respectively.

With `CCOc1c(NC(=O)c2cccn(C3CC3)c2=O)cn2cc(CCS(C)(=O)=O)nc2c1F` [Compound 39, 1-cyclopropyl-N-[7-ethoxy-8-fluoro-2-(2-methylsulfonylethyl)imidazo[1,2-a]pyridin-6-yl]-2-oxo-pyridine-3-carboxamide], the solubility thermodynamic at 24 h is greater than 1000 µg/mL in “Thermodynamic solubility” (setting [4]) and 20.9 µg/mL (≈ 45.2 µM) in “Thermodynamic solubility” (setting [6]). In the data set “Thermodynamic solubility” (setting [2]), the “Tsol FaSSGF” value is >1000, μg/mL. The “Tsol FaSSIF” value in the data set “Thermodynamic solubility” (setting [3]) is 7.3 µg/mL and 7.50 µg/mL.

On to `CC(C)(O)CCc1cn2cc(NC(=O)c3cccc(C(F)(F)F)n3)c(C(=O)NCC(F)F)cc2n1` [Compound 48, N-(2,2-difluoroethyl)-2-(3-hydroxy-3-methylbutyl)-6-(6-(trifluoromethyl)picolinamido)imidazo[1,2-a]pyridine-7-carboxamide], for which the “Human (Perc. remaining at 90 min)” value in data set [1] was 100.95%.

In the case of `CCNC(=O)c1cc2nc(CCC(C)(C)O)cn2cc1NC(=O)c1cccc(C(F)(F)F)n1` [Compound 49, N-ethyl-2-(3-hydroxy-3-methylbutyl)-6-(6-(trifluoromethyl)picolinamido)imidazo[1,2-a]pyridine-7-carboxamide], in data set [1], the “Human (Perc. remaining at 90 min)” value amounted to 95.9%.
